These results are taken from PubChem BioAssay (NCI).

Common to all, as to assay: DTP human tumour cell line panel, 48 h
Test [1] deals with RXF 393 renal.
Test [2] has as its system UACC-62 melanoma.
Test [3] concerns HL-60(TB) leukemia.
The subject of test [4] is SK-OV-3 ovarian.
For test [5], the system named is SR leukemia.
Test [6] has as its system UO-31 renal.
Test [7] relates to NCI-H460 lung.
Test [8] deals with EKVX NSCLC.
Test [9] deals with MDA-MB-435.
The test system of test [10] is A498 renal.

Where “and” joins values, the source holds several entries; their conditions need not be identical. Equal values may be shown once.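 Exposure lasted 48 hours, with cells grown in 96-well plates and compounds tested at five concentrations. GI50 marks 50% less growth. TGI: concentration producing complete growth inhibition.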 A value given as a limit tells only on which side of the number the result lay.

As to `O=C1CC(NC(=O)C(F)(F)F)c2c1csc2Br` (centres undefined), the TGI in test [1] was 47.9 µM; in test [2] it was above 100 µM; in test [3] it was above 100 µM; in test [4] it was above 100 µM; in [5], above 100 µM; in [6], above 100 µM. For the same compound, the TGI in [7] is above 100 µM; in test [8], 38.2 µM; in test [9], above 100 µM; in [10], above 100 µM.

Regarding `CSc1ccc(C2=NN(C(=O)c3ccc(F)cc3)C(c3ccc(F)cc3)C2)cc1` (centres undefined), the GI50 in test [1] is 4.8 µM; in test [2], 11.7 µM; in test [3], 12 µM; in [4], 16.9 µM; in [5], 1.71 µM; in test [6], 12.6 µM. Further, the GI50 is 13 µM in [7], 18.9 µM in test [8], 10.6 µM in test [9] and 19.6 µM in test [10]. In addition, the TGI in test [1] came to 20 µM; in [2], 24.5 µM; in [3], 35.3 µM; in [4], 31.1 µM; in test [5], 5.95 µM; in test [6], 25.1 µM. For the same compound, the TGI in test [7] is 28.7 µM; in test [8], 37 µM; in [9] it was 26.8 µM; in test [10] it was 34.9 µM.

In the case of `CCN(CC)c1cc2c3c(c1)CCCN3CCC2`, the TGI in test [1], in test [2], in test [3], in test [4], in test [5] and in test [6] was above 10 µM throughout. The TGI in test [7], in test [8], in test [9] and in test [10] was above 10 µM throughout.

As for `CCN1CCN(C(=O)[C@]23CC[C@@H](C)[C@H](C)[C@@H]2C2=CC[C@@H]4[C@@]5(C)C/C(=C/c6ccncc6)C(=O)C(C)(C)[C@@H]5CC[C@@]4(C)[C@]2(C)CC3)CC1`, the GI50 was 1.39 µM in test [1]; 1.53 µM in [2]; 1.9 µM in test [3]; 1.83 µM in [4]; 1.89 µM in test [5]; 1.37 µM in test [6]. The GI50 in test [7] was 1.7 µM; in test [8], 1.47 µM; in [9], 1.62 µM; in test [10], 1.49 µM. In addition, the TGI in test [1] is 2.79 µM; in test [2], 2.87 µM; in test [3], 4.9 µM; in [4] it was 3.67 µM; in test [5], 5.29 µM; in test [6], 2.65 µM. Also, the TGI in test [7] is 3.25 µM; in test [8] it was 3.41 µM; in [9], 3.24 µM; in test [10], 2.9 µM.

Take `CC(=O)N[C@H]1C=C[C@@H]2/C=C(C)/C=C/[C@@H](C)[C@H]([C@H](C)[C@H](O)[C@@H](C)NC(C)=O)OC(=O)/C=C/C=C(C)\C=C\[C@]2(C)C1`: the GI50 in test [1] was 0.0103 µM and 0.0045 µM; in test [2] it was 0.0228 µM and 0.0315 µM; in test [4], 0.0117 µM and 0.0045 µM; in test [5], 0.0184 µM and 0.0045 µM; in test [6], 0.00414 µM and 0.0045 µM; in [7], 0.0045 µM. The GI50 in [9] is 0.00823 µM; in [10], 0.0045 µM. For the same compound, the TGI was 4.65 µM and 13.3 µM in [2]; 4.65 µM and 20.6 µM in test [3]; 4.65 µM and > 45 µM in [4]; 4.65 µM and 20.3 µM in test [5]; 4.65 µM and 10.6 µM in test [6]; above 45 µM in test [7]. The TGI is 4.65 µM and > 45 µM in test [8]; 4.65 µM in test [9]; 0.0181 µM in test [10].

For `O=Cc1ccc(-c2cc(C=O)c(-c3cccs3)[nH]2)s1`, the GI50 was 23.3 µM in test [1]; 46 µM in test [2]; above 100 µM in test [4]; 31.6 µM in test [5]; 34 µM in [6]; 48.2 µM in test [7]. In addition, the GI50 in test [8] is 47.8 µM; in test [9] it was 43.7 µM. The TGI is 75 µM and > 100 µM in test [1]; 75 µM and > 100 µM in test [2]; 75 µM and > 100 µM in test [4]; 72.7 µM and > 100 µM in test [5]; 75 µM and > 100 µM in test [6]; 75 µM and > 100 µM in test [7]. Further, the TGI in test [8] is 75 µM and > 100 µM; in test [9], 75 µM and > 100 µM; in test [10], 5.73 µM and 4.49 µM.

Turning to `CN1CCN(CCCN)CC1`, the TGI in test [1], in test [2], in [3], in test [4], in test [5] and in [6] was above 100 µM in each case. Moreover, the TGI in test [8], in test [9] and in test [10] was above 100 µM in each case.

Regarding `COC(=O)c1cc2c(cc1Cl)SC(N(N(C)C)S(=O)(=O)c1ccc(Br)s1)=NS2(=O)=O`, the GI50 in [2] was 21.4 µM; in test [3], 19.6 µM; in test [4], 28 µM; in test [5] it was 13.3 µM; in test [6], 27.3 µM; in test [7], 22.4 µM. Also, the GI50 is 25.3 µM in test [8], 23.1 µM in [9] and 28.8 µM in [10]. The TGI in test [2] was 50.6 µM; in test [3], 44.5 µM; in test [4], 66.7 µM; in test [5] it was 35.4 µM; in test [6], 81.3 µM; in [7] it was 43.9 µM. Besides, the results for the TGI in test [8], in test [9] and in test [10] were 61 µM, 49.7 µM and 80.1 µM, respectively.

Regarding `CCN(CC)CCC(=O)NC1c2ccc(Cl)cc2Oc2c(C)cccc21` (centres undefined), the TGI in [2] amounted to 34 µM; in test [3], 41.2 µM; in test [4], 31.8 µM; in test [5], 39.1 µM; in test [6], 21.5 µM; in test [7], 31.7 µM. The TGI was determined as 36.9 µM in test [8] and 28.3 µM in test [9].

Regarding `O=c1c(Oc2ccc(F)cc2F)cc2cnc(NC3CCOCC3)nc2n1C1CCS(=O)(=O)CC1`, the GI50 in test [1], in test [2], in test [3], in test [4], in test [5] and in [6] was above 25 µM each time. Further, the GI50 in test [7], in test [9] and in [10] was above 25 µM each time. Further, the TGI in test [1], in [2], in test [3], in test [4], in [5] and in [6] was above 25 µM throughout. The TGI in test [7], in test [9] and in test [10] was above 25 µM in each case.

As for `CCOC(=O)c1cc(C#N)c(=O)n(/N=C(\C)c2ccncc2)c1O`, the GI50 in [2], in [4], in test [5], in test [6], in [7] and in [8] was above 100 µM throughout. Moreover, the GI50 in test [9] was above 100 µM. The TGI in test [2], in test [4], in test [5], in test [6], in [7] and in [8] was above 100 µM throughout. Besides, the TGI in test [9] is above 100 µM.

As to `O=C(/C=C/c1ccc(F)cc1)c1ccc(Cl)cc1Cl`, the GI50 in test [1] was 30.5 µM; in test [2], 39.8 µM; in [4], above 100 µM; in test [5] it was 26.4 µM; in [6], 91.8 µM; in test [7], 65.6 µM. The figures for the GI50 in [8], in test [9] and in test [10] were 89.9 µM, 50 µM and above 100 µM, respectively. Further, the TGI was 93.4 µM in test [1]; above 100 µM in test [2]; above 100 µM in [4]; 86.5 µM in [5]; above 100 µM in test [6]; above 100 µM in [7]. The TGI in test [8], in [9] and in test [10] was above 100 µM throughout.

Consider `CC(=O)Nc1ccc(C(=O)NN2C(=O)C(Cl)C2c2ccc(Cl)cc2)cc1` (centres undefined), for which the TGI was above 100 µM in test [2]; above 100 µM in test [3]; 71.9 µM in test [4]; above 100 µM in [5]; above 100 µM in test [6]; above 100 µM in test [7]. In addition, the TGI in test [8] and in test [9] was above 100 µM in each case.

On to `CC(=O)CC(=O)Nc1ccc2ccccc2c1`, for which the TGI in test [1], in test [2], in test [3], in test [4], in [5] and in [7] was above 100 µM each time. The TGI in [8], in [9] and in test [10] was above 100 µM throughout.

Turning to `Cn1ccnc1CC(C)(O)c1ccccc1` (centres undefined), the TGI in test [1], in test [2], in test [4], in test [5], in [6] and in test [7] was above 100 µM in each case. For the same compound, the TGI in [8], in test [9] and in [10] was above 100 µM in each case.

Consider `Nc1ccc(N(S(=O)(=O)c2ccccc2)S(=O)(=O)c2ccccc2)c(Cl)c1`, for which the TGI in [1], in test [2], in test [5], in [6], in [7] and in [8] was above 100 µM in each case. The TGI in test [9] was above 100 µM; in test [10], 98.2 µM.

Turning to `Cc1c[nH]c2c(O)cc3c(c12)[C@H](CCl)CN3C(=O)c1cc2cc(NC(=O)Nc3ccc4[nH]c(C(=O)N5C[C@@H](CCl)c6c5cc(O)c5[nH]cc(C)c65)cc4c3)ccc2[nH]1`, the TGI in test [1] is 70.8 nM and > 100 µM and 0.000888 µg/mL; in test [4], 26.7 nM and > 100 µM and 8.88 µg/mL; in test [8], 7.21 nM and > 100 µM and 9.5e-07 µg/mL; in [10], 75.7 nM and 15 µM and 0.00215 µg/mL. Also, the GI50 in test [5] is 0.000244 µM; in [6] it was 0.0291 µM; in [9] it was 0.0146 µM.

Regarding `CC[C@H](NC(=O)[C@H](C)NC)C(=O)N1C[C@@H](O)C[C@H]1Cc1c(-c2[nH]c3cc(F)ccc3c2C[C@@H]2C[C@H](O)CN2C(=O)[C@H](CC)NC(=O)[C@H](C)NC)[nH]c2cc(F)ccc12`, the GI50 was 2.27 µM in [1]; above 100 µM in test [2]; 7.15 µM in [3]; below 0.0104 µM in test [4]; 15.5 µM in test [5]; above 100 µM in test [6]. Moreover, the GI50 in [7] and in test [10] was above 100 µM in each case. Besides, the TGI was above 20.1 µM in test [1]; above 100 µM in test [2]; 42.9 µM in test [3]; 0.0189 µM in [4]; above 100 µM in [5]; above 100 µM in test [6]. Besides, the TGI in [7], in test [9] and in [10] was above 100 µM throughout.

As for `C=CCC(N[C@H](CO)c1ccccc1)c1ccc2ccccc2n1` (some centres undefined), the GI50 in test [1] was above 100 µM; in test [2], above 100 µM; in test [3], 48.7 µM; in [4] it was above 100 µM; in test [5], above 100 µM; in [6] it was above 100 µM. The GI50 was above 100 µM in test [8], above 100 µM in [9] and 29.3 µM in test [10]. The TGI in [1], in test [2], in test [3], in [4], in test [5] and in test [6] was above 100 µM each time. The TGI in test [8], in [9] and in [10] was above 100 µM each time.

With `Cn1c([N+](=O)[O-])cnc1/C=C1\Oc2ccccc2C1=O`, the GI50 in test [2] was 0.522 µM; in test [3], 0.28 µM; in test [4], 1.62 µM; in test [5] it was 0.0392 µM; in test [6], 0.309 µM; in [7], 0.314 µM. In addition, the GI50 in test [9] is 0.175 µM. Further, the TGI in [2] stood at 2.22 µM; in [3], 1.5 µM; in test [4] it was 6.34 µM; in test [5], 0.534 µM; in [6] it was 1.71 µM; in test [7] it was 1.72 µM. In addition, the TGI in [9] came out at 0.395 µM.

Broadly, the TGI is the concentration giving total growth inhibition. Higher therefore signals lower sensitivity of the cells. One may read the GI50 as the concentration giving 50% growth inhibition.
